Data on 35 compounds can be found in US20050004134A1, “Thiazole derivative and pharmaceutical use thereof” (priority 2001, published 2005).

One may read the melting point as the temperature of the solid-liquid transition. `CC(C)n1nc(-c2sc(C(=O)NCc3ccccc3)nc2-c2ccccc2)ccc1=O` [Example 220, N-Benzyl-5-(1-isopropyl-6-oxo-1,6-dihydro-3-pyridazinyl)-4-phenyl-1,3-thiazole-2-carboxamide] gave a melting point of 186 to 187 °C.

`CC(C)n1nc(-c2sc(NC(=O)CCN3CCOCC3)nc2-c2ccccc2)ccc1=O` [Example 123, N-[5-(1-Isopropyl-6-oxo-1,6-dihydro-3-pyridazinyl)-4-phenyl-1,3-thiazol-2-yl]-3-(4-morpholinyl)propanamide]: the melting point lay in the range of 197 to 198 °C. On to `CCCn1nc(-c2sc(C(=O)NCc3ccccn3)nc2-c2ccccc2)ccc1=O` [Example 203, 5-(6-Oxo-1-propyl-1,6-dihydro-3-pyridazinyl)-4-phenyl-N-(2-pyridinylmethyl)-1,3-thiazole-2-carboxamide], for which the melting point is 134 to 135.5 °C. The same measure for `Cc1ccc(S(=O)(=O)NC(=O)Nc2nc(-c3ccccc3)c(-c3ccc(=O)n(C(C)C)n3)s2)cc1` [Example 12, N-({[5-(1-Isopropyl-6-oxo-1,6-dihydro-3-pyridazinyl)-4-phenyl-1,3-thiazol-2-yl]amino}carbonyl)-4-methylbenzene-sulfonamide]: 172 to 174 °C. The same measure for `CC(C)n1nc(-c2sc(NC(=O)CNCc3cccnc3)nc2-c2ccccc2)ccc1=O` [Example 120, N-[5-(1-Isopropyl-6-oxo-1,6-dihydro-3-pyridazinyl)-4-phenyl-1,3-thiazol-2-yl]-2-[(3-pyridinylmethyl)amino]acetamide]: 156 to 158 °C; for `CC(C)n1nc(-c2sc(NC(=O)c3ccc4ccccc4c3)nc2-c2ccccc2)ccc1=O` [Example 30, N-[5-(1-Isopropyl-6-oxo-1,6-dihydro-3-pyridazinyl)-4-phenyl-1,3-thiazol-2-yl]-2-naphthamide]: 227 to 229 °C; for `CC(C)n1nc(-c2sc(C(=O)NC3CC3)nc2-c2ccccc2F)ccc1=O` [Example 196, N-cyclopropyl-4-(2-fluorophenyl)-5-(1-isopropyl-6-oxo-1,6-dihydro-3-pyridazinyl)-1,3-thiazole-2-carboxamide]: 133.5 to 135 °C.

With `CC(=O)NCCNC(=O)c1nc(-c2ccccc2)c(-c2ccc(=O)n(C(C)C)n2)s1` [Example 217, N-[2-(Acetylamino)ethyl]-5-(1-isopropyl-6-oxo-1,6-dihydro-3-pyridazinyl)-4-phenyl-1,3-thiazole-2-carboxamide], the melting point lay within 170 to 171.5 °C. Turning to `CC(C)n1nc(-c2sc(NC(=O)c3ccc(CN(C)CCN(C)C)cc3)nc2-c2ccccc2)ccc1=O` [Example 137, 4-{[[2-(Dimethylamino)ethyl] (methyl)amino]methyl}-N-[5-(1-isopropyl-6-oxo-1,6-dihydro-3-pyridazinyl)-4-phenyl-1,3-thiazol-2-yl]benzamide], the melting point lay within 131 to 133 °C. `CC(C)n1nc(-c2sc(NC=O)nc2-c2ccc(F)cc2)ccc1=O` [Example 76, 4-(4-fluorophenyl)-5-(1-isopropyl-6-oxo-1,6-dihydro-3-pyridazinyl)-1,3-thiazol-2-ylformamide] displayed a melting point of 230 to 231 °C.

The compound `Cc1cccc(NC(=O)N(C)c2nc(-c3ccccc3)c(-c3ccc(=O)n(C(C)C)n3)s2)c1` [Example 99, N-[5-(1-isopropyl-6-oxo-1,6-dihydro-3-pyridazinyl)-4-phenyl-1,3-thiazol-2-yl]-N-methyl-N′-(3-methylphenyl)urea] returned a melting point of 157 to 158 °C. The compound `Br.CCCCNc1nc(-c2ccccc2)c(-c2ccc(=O)n(C(C)C)n2)s1` came in with a melting point of 204 to 205 °C. The same measure for `CC(C)n1nc(-c2sc(NC(=O)c3ccc(CN4CCOCC4)cc3)nc2-c2ccccc2)ccc1=O` [Example 27, N-[5-(1-Isopropyl-6-oxo-1,6-dihydro-3-pyridazinyl)-4-phenyl-1,3-thiazol-2-yl]-4-(4-morpholinylmethyl)benzamide]: 222 to 224 °C; for `CC(C)n1nc(-c2sc(C(N)=O)nc2-c2ccc(F)cc2)ccc1=O` [Example 165, 4-(4-Fluorophenyl)-5-(1-isopropyl-6-oxo-1,6-dihydro-3-pyridazinyl)-1,3-thiazole-2-carboxamide]: 226.5 to 227.5 °C.

The compound `CC(C)n1nc(-c2sc(C(=O)NC3CCCCC3)nc2-c2ccccc2)ccc1=O` [Example 225, N-Cyclohexyl-5-(1-isopropyl-6-oxo-1,6-dihydro-3-pyridazinyl)-4-phenyl-1,3-thiazole-2-carboxamide] had a melting point of 225 to 226 °C.

In turn, `COCCn1nc(-c2sc(C(=O)NC(C)C)nc2-c2ccccc2)ccc1=O` [Example 183, N-isopropyl-5-[1-(2-methoxyethyl)-6-oxo-1,6-dihydro-3-pyridazinyl]-4-phenyl-1,3-thiazole-2-carboxamide] had a melting point of 172 to 172.5 °C.

The compound `CCCNC(=O)c1nc(-c2ccccc2)c(-c2ccc(=O)n(CC)n2)s1` [Example 171, 5-(1-ethyl-6-oxo-1,6-dihydro-3-pyridazinyl)-4-phenyl-N-propyl-1,3-thiazole-2-carboxamide] came in with a melting point of 106.5 to 107.5 °C. The same measure for `CONC(=O)c1nc(-c2ccc(F)cc2)c(-c2ccc(=O)n(C(C)C)n2)s1` [Example 238, 4-(4-fluorophenyl)-5-(1-isopropyl-6-oxo-1,6-dihydro-3-pyridazinyl)-N-methoxy-1,3-thiazole-2-carboxamide]: 164.5 to 166.5 °C; for `CC(C)n1nc(-c2sc(C(=O)N3CCOCC3)nc2-c2ccccc2)ccc1=O` [Example 227, 2-Isopropyl-6-[2-(4-morpholinylcarbonyl)-4-phenyl-1,3-thiazol-5-yl]-3(2H)-pyridazinone]: 161.5 to 162.5 °C; for `CC(C)n1nc(-c2sc(C(=O)NCCc3ccccn3)nc2-c2ccccc2)ccc1=O` [Example 234, 5-(1-Isopropyl-6-oxo-1,6-dihydro-3-pyridazinyl)-4-phenyl-N-[2-(2-pyridinyl)ethyl]-1,3-thiazole-2-carboxamide]: 144 to 147 °C. Compound `CC(C)n1nc(-c2sc(NC(=O)C3CCCCC3)nc2-c2ccccc2)ccc1=O` [Example 7, N-[5-(1-Isopropyl-6-oxo-1,6-dihydro-3-pyridazinyl)-4-phenyl-1,3-thiazol-2-yl]cyclohexanecarboxamide] had a melting point of 234 to 236 °C. The same measure for `CC(C)n1nc(-c2sc(NC(=N)N)nc2-c2ccccc2)ccc1=O` [Example 63, N-[5-(1-Isopropyl-6-oxo-1,6-dihydro-3-pyridazinyl)-4-phenyl-1,3-thiazol-2-yl]guanidine]: more than 250 °C; for `CC(C)n1nc(-c2sc(NC(=O)CN3CCN(C)CC3)nc2-c2ccccc2)ccc1=O.Cl.Cl`: 244 to 246 °C; for `CC(C)n1nc(-c2sc(NC(=O)OC(C)(C)C)nc2-c2ccccc2)ccc1=O` [Example 95, tert-butyl 5-(1-isopropyl-6-oxo-1,6-dihydro-3-pyridazinyl)-4-phenyl-1,3-thiazol-2-ylcarbamate]: 198 to 199 °C. The same measure for `C=CCn1nc([SH]2C=C(c3ccccc3)N=C2C(=O)NC2CC2)ccc1=O` (stereo not drawn) [Example 193, S-(1-allyl-6-oxo-1,6-dihydro-3-pyridazinyl)-N-cyclopropyl-4-phenyl-1,3-thiazole-2-carboxamide]: 167.5 to 168.5 °C.

`CC(C)n1nc(-c2sc(C(N)=O)nc2-c2ccccc2F)ccc1=O` [Example 163, 4-(2-Fluorophenyl)-5-(1-isopropyl-6-oxo-1,6-dihydro-3-pyridazinyl)-1,3-thiazole-2-carboxamide] returned a melting point of 213 to 215 °C. The same measure for `CC(C)n1nc(-c2sc(C(=O)NCc3ccccn3)nc2-c2cccc(Cl)c2)ccc1=O` [Example 209, 4-(3-Chlorophenyl)-5-(1-isopropyl-6-oxo-1,6-dihydro-3-pyridazinyl)-N-(2-pyridinylmethyl)-1,3-thiazole-2-carboxamide]: 168 to 169.5 °C. `CC(C)n1nc(-c2sc(NC(=O)c3ccc(CNCCO)cc3)nc2-c2ccccc2)ccc1=O` [Example 138, 4-{[(2-Hydroxyethyl)amino]methyl}-N-[5-(1-isopropyl-6-oxo-1,6-dihydro-3-pyridazinyl)-4-phenyl-1,3-thiazol-2-yl]benzamide] showed a melting point of 111 to 113 °C. The same measure for `C=CCn1nc(-c2sc(C(N)=O)nc2-c2ccccc2)ccc1=O` [Example 162, 5-(1-Allyl-6-oxo-1,6-dihydro-3-pyridazinyl)-4-phenyl-1,3-thiazole-2-carboxamide]: 198 to 199.5 °C. The same measure for `C=CCNc1nc(-c2ccccc2)c(-c2ccc(=O)n(CC=C)n2)s1` [Example 93, 2-allyl-6-[2-(allylamino)-4-phenyl-1,3-thiazol-5-yl]-3(2H)-pyridazinone]: 146 to 147 °C. The same measure for `CC(C)n1nc(-c2sc(C(=O)NCCN3CCOCC3)nc2-c2ccccc2)ccc1=O` [Example 224, 5-(1-Isopropyl-6-oxo-1,6-dihydro-3-pyridazinyl)-N-[2-(4-morpholinyl)-ethyl]-4-phenyl-1,3-thiazole-2-carboxamide]: 196.5 to 197.5 °C. The compound `CC(C)n1nc(-c2sc(C(=O)NCCc3ccccn3)nc2-c2ccc(F)cc2)ccc1=O` [Example 237, 4-(4-Fluorophenyl)-5-(1-isopropyl-6-oxo-1,6-dihydro-3-pyridazinyl)-N-[2-(2-pyridinyl)ethyl]-1,3-thiazole-2-carboxamide] showed a melting point of 144 to 145 °C. In turn, `CCCNC(=O)c1nc(-c2ccccc2)c(-c2ccc(=O)n(CCC)n2)s1` [Example 172, 5-(6-oxo-1-propyl-1,6-dihydro-3-pyridazinyl)-4-phenyl-N-propyl-1,3-thiazole-2-carboxamide] displayed a melting point of 121 to 122 °C. The same measure for `CC(C)n1nc(-c2sc(NCc3ccco3)nc2-c2ccccc2)ccc1=O` [Example 66, 6-{2-[(2-Furylmethyl)amino]-4-phenyl-1,3-thiazol-5-yl}-2-isopropyl-3(2H)-pyridazinone]: 115 to 116 °C; for `CC(C)n1nc(-c2sc(C(=O)N(C)C)nc2-c2ccccc2)ccc1=O` [Example 213, 5-(1-isopropyl-6-oxo-1,6-dihydro-3-pyridazinyl)-N,N-dimethyl-4-phenyl-1,3-thiazole-2-carboxamide]: 141 to 144 °C.
